Measured values: patent US6703362B1, “Random peptides that bind to gastro-intestinal tract (GIT) transport receptors and related methods” (Cytogen Corporation, priority 1997, dated 2004)
Peptide text beside a SMILES is read from it. * marks the point of attachment. Dansyl = CN(C)c1cccc2c(S(=O)(=O)*)cccc12

How the values were obtained:
fixed Caco-2 cells = test: Inhibition of GST-peptide fusion binding to fixed Caco-2 cells by synthetic peptides; settings: peptide from 100 μg/ml serially diluted; GST fusion 10 μg
Text: Caco-2 cells were fixed, treated with phenylhydrazine and blocked as described above. […] GST-PAX2 binding was inhibited by ZElan032, ZElan033, and ZElan035.

[1] = test system: P100 membrane fractions derived from Caco-2 cells; test: Dansylated peptide ELISA: relative binding of PAX2 and HAX42 peptides to P100 (ratio to ZElan021); settings: ratio to ZElan021 = 1.00; for Binding value at 50 μg/ml (Jackson Ab) / Binding value at 50 μg/ml (Southern Ab) / Binding value at 20 μg/ml / Binding value at 50 μg/ml: PAX2 peptides; for Binding value at 25 μg/ml: HAX42 peptides
Protocol: The peptides and proteins were analyzed by a dansylated peptide ELISA method in which 96 well plates were coated overnight at 4° C. with 100 μl/well coating protein (normally 100 μg/ml P100 membrane fraction) in 0.05M carbonate buffer pH9.6. Nonspecific binding was blocked using 200 μl/well, 2% Marvel/PBS for 2 hours at 37° C. prior to incubation with dansylated peptides. The plates were washed three times with PBS/0.05% Tween 20 and after each subsequent incubation step. […] A buffer blank control was included to ensure that background binding to plastic was not due to the antibodies used in the assay system. […] The plates were then incubated with an anti-mouse X-HRP conjugated antibody (Southern Biotech 1060-05) at a 1:10,000 dilution in blocking solution, 100 μl/well for 1 hour at room temperature. Plates were developed using 75 μl/well Bionostics TMB substrate and incubated for approximately 10 minutes. The developing reaction was stopped using Bionostics Red Stop solution (25 μl/well), and the optical density of the plates was read at 650nm.

Compound	inhibition of GST-P31 binding (fixed Caco-2 cells)	Binding value at 50 μg/ml (Jackson Ab) [1]	Binding value at 50 μg/ml (Southern Ab) [1]	Binding value at 20 μg/ml ([1]; first 20 μg/ml column)	Binding value at 50 μg/ml ([1]; first 50 μg/ml column)	Binding value at 50 μg/ml ([1]; second 50 μg/ml column)	Binding value at 20 μg/ml ([1]; second 20 μg/ml column)	Binding value at 25 μg/ml ([1]; first 25 μg/ml column)	Binding value at 25 μg/ml ([1]; second 25 μg/ml column)	Binding value at 25 μg/ml ([1]; third 25 μg/ml column)
C[C@H](NC(=O)[C@H](CC(N)=O)NC(=O)[C@H](CCC(=O)O)NC(=O)[C@@H](N)CCCCNS(=O)(=O)c1cccc2c(N(C)C)cccc12)C(=O)N[C@@H](CC(N)=O)C(=O)N[C@H](C(=O)N[C@@H](CCCNC(=N)N)C(=O)N[C@@H](CCCCN)C(=O)N[C@@H](CO)C(=O)N[C@@H](CO)C(=O)N[C@@H](CCCNC(=N)N)C(=O)N[C@@H](CO)C(=O)N[C@@H](CC(N)=O)C(=O)N1CCC[C@H]1C(=O)N[C@@H](CCCNC(=N)N)C(=O)NCC(=O)N[C@@H](CCCNC(=N)N)C(=O)N[C@@H](CCCNC(=N)N)C(=O)N[C@@H](Cc1c[nH]cn1)C(=O)N1CCC[C@H]1C(=O)NCC(N)=O)[C@@H](C)O [ZElan028] (H-K(Dansyl)ENANTRKSSRSNPRGRRHPG-NH2)	inhibited									
CC(C)C[C@H](NC(=O)[C@H](CCCNC(=N)N)NC(=O)[C@H](CCCNC(=N)N)NC(=O)[C@H](CC(N)=O)NC(=O)[C@H](Cc1c[nH]cn1)NC(=O)[C@H](CO)NC(=O)[C@H](C)NC(=O)[C@@H](N)CCCCNS(=O)(=O)c1cccc2c(N(C)C)cccc12)C(=O)N[C@@H](CCCNC(=N)N)C(=O)N[C@H](C(=O)N[C@@H](CCCNC(=N)N)C(N)=O)[C@@H](C)O [ZElan073] (H-K(Dansyl)ASHNRRLRTR-NH2)		0.66	0.49	0.07	−0.11	0.49				
CC(C)C[C@H](NC(=O)[C@H](CCCNC(=N)N)NC(=O)[C@H](CCCNC(=N)N)NC(=O)[C@H](CC(N)=O)NC(=O)[C@H](Cc1c[nH]cn1)NC(=O)[C@H](C)NC(=O)[C@H](CO)NC(=O)[C@@H](N)CCCCNS(=O)(=O)c1cccc2c(N(C)C)cccc12)C(=O)N[C@@H](CCCNC(=N)N)C(=O)N[C@H](C(=O)N[C@@H](CCCNC(=N)N)C(N)=O)[C@@H](C)O [ZElan074] (H-K(Dansyl)SAHNRRLRTR-NH2)		0.71	0.48	0.06	0.82	0.52				
CC(C)C[C@H](NC(=O)[C@H](CCCNC(=N)N)NC(=O)[C@H](CCCNC(=N)N)NC(=O)[C@H](CC(N)=O)NC(=O)[C@H](C)NC(=O)[C@H](CO)NC(=O)[C@H](CO)NC(=O)[C@@H](N)CCCCNS(=O)(=O)c1cccc2c(N(C)C)cccc12)C(=O)N[C@@H](CCCNC(=N)N)C(=O)N[C@H](C(=O)N[C@@H](CCCNC(=N)N)C(N)=O)[C@@H](C)O [ZElan075] (H-K(Dansyl)SSANRRLRTR-NH2)		0.47	0.32	0.13	0.52	0.38				
CC(C)C[C@H](NC(=O)[C@H](CCCNC(=N)N)NC(=O)[C@H](CCCNC(=N)N)NC(=O)[C@H](C)NC(=O)[C@H](Cc1c[nH]cn1)NC(=O)[C@H](CO)NC(=O)[C@H](CO)NC(=O)[C@@H](N)CCCCNS(=O)(=O)c1cccc2c(N(C)C)cccc12)C(=O)N[C@@H](CCCNC(=N)N)C(=O)N[C@H](C(=O)N[C@@H](CCCNC(=N)N)C(N)=O)[C@@H](C)O [ZElan076] (H-K(Dansyl)SSHARRLRTR-NH2)		0.60	0.42	0.08	1.00	0.41				
CC(C)C[C@H](NC(=O)[C@H](CCCNC(=N)N)NC(=O)[C@H](C)NC(=O)[C@H](CC(N)=O)NC(=O)[C@H](Cc1c[nH]cn1)NC(=O)[C@H](CO)NC(=O)[C@H](CO)NC(=O)[C@@H](N)CCCCNS(=O)(=O)c1cccc2c(N(C)C)cccc12)C(=O)N[C@@H](CCCNC(=N)N)C(=O)N[C@H](C(=O)N[C@@H](CCCNC(=N)N)C(N)=O)[C@@H](C)O [ZElan077] (H-K(Dansyl)SSHNARLRTR-NH2)		0.73	0.52	0.20	0.76	0.54				
CC(C)C[C@H](NC(=O)[C@H](C)NC(=O)[C@H](CCCNC(=N)N)NC(=O)[C@H](CC(N)=O)NC(=O)[C@H](Cc1c[nH]cn1)NC(=O)[C@H](CO)NC(=O)[C@H](CO)NC(=O)[C@@H](N)CCCCNS(=O)(=O)c1cccc2c(N(C)C)cccc12)C(=O)N[C@@H](CCCNC(=N)N)C(=O)N[C@H](C(=O)N[C@@H](CCCNC(=N)N)C(N)=O)[C@@H](C)O [ZElan078] (H-K(Dansyl)SSHNRALRTR-NH2)		0.68	0.47	0.11	0.87	0.69				
C[C@H](NC(=O)[C@H](CCCNC(=N)N)NC(=O)[C@H](CCCNC(=N)N)NC(=O)[C@H](CC(N)=O)NC(=O)[C@H](Cc1c[nH]cn1)NC(=O)[C@H](CO)NC(=O)[C@H](CO)NC(=O)[C@@H](N)CCCCNS(=O)(=O)c1cccc2c(N(C)C)cccc12)C(=O)N[C@@H](CCCNC(=N)N)C(=O)N[C@H](C(=O)N[C@@H](CCCNC(=N)N)C(N)=O)[C@@H](C)O [ZElan079] (H-K(Dansyl)SSHNRRARTR-NH2)		0.83	0.53	0.31	0.97	0.68				
CC(C)C[C@H](NC(=O)[C@H](CCCNC(=N)N)NC(=O)[C@H](CCCNC(=N)N)NC(=O)[C@H](CC(N)=O)NC(=O)[C@H](Cc1c[nH]cn1)NC(=O)[C@H](CO)NC(=O)[C@H](CO)NC(=O)[C@@H](N)CCCCNS(=O)(=O)c1cccc2c(N(C)C)cccc12)C(=O)N[C@@H](C)C(=O)N[C@H](C(=O)N[C@@H](CCCNC(=N)N)C(N)=O)[C@@H](C)O [ZElan080] (H-K(Dansyl)SSHNRRLATR-NH2)		0.67	0.38	0.23	0.84	0.45				
CC(C)C[C@H](NC(=O)[C@H](CCCNC(=N)N)NC(=O)[C@H](CCCNC(=N)N)NC(=O)[C@H](CC(N)=O)NC(=O)[C@H](Cc1c[nH]cn1)NC(=O)[C@H](CO)NC(=O)[C@H](CO)NC(=O)[C@@H](N)CCCCNS(=O)(=O)c1cccc2c(N(C)C)cccc12)C(=O)N[C@@H](CCCNC(=N)N)C(=O)N[C@@H](C)C(=O)N[C@@H](CCCNC(=N)N)C(N)=O [ZElan081] (H-K(Dansyl)SSHNRRLRAR-NH2)				0.01	0.89	0.47				
CC(C)C[C@H](NC(=O)[C@H](CCCNC(=N)N)NC(=O)[C@H](CCCNC(=N)N)NC(=O)[C@H](CC(N)=O)NC(=O)[C@H](Cc1c[nH]cn1)NC(=O)[C@H](CO)NC(=O)[C@H](CO)NC(=O)[C@@H](N)CCCCNS(=O)(=O)c1cccc2c(N(C)C)cccc12)C(=O)N[C@@H](CCCNC(=N)N)C(=O)N[C@H](C(=O)N[C@@H](C)C(N)=O)[C@@H](C)O [ZElan082] (H-K(Dansyl)SSHNRRLRTA-NH2)				0.00	0.92	0.40				
CC(C)C[C@H](NC(=O)[C@H](CCCNC(=N)N)NC(=O)[C@H](CO)NC(=O)[C@@H](NC(=O)[C@H](CCCCN)NC(=O)[C@H](CC(N)=O)NC(=O)[C@H](CCCNC(=N)N)NC(=O)[C@@H](NC(=O)[C@H](CC(N)=O)NC(=O)[C@H](CCCNC(=N)N)NC(=O)[C@@H](N)CCCCNS(=O)(=O)c1cccc2c(N(C)C)cccc12)[C@@H](C)O)[C@@H](C)O)C(=O)N[C@@H](CO)C(=O)N[C@@H](C)C(=O)N[C@@H](CC(N)=O)C(=O)N1CCC[C@H]1C(=O)N[C@@H](Cc1c[nH]cn1)C(=O)N[C@@H](CCCNC(=N)N)C(=O)N[C@@H](CO)C(=O)N[C@@H](Cc1c[nH]cn1)C(=O)N[C@@H](CCCNC(=N)N)C(N)=O [ZElan084, reference compound] (H-K(Dansyl)RNTRNKTSRLSANPHRSHR-NH2)				1.06	1.16	0.77	0.93			
C[C@@H](O)[C@H](NC(=O)[C@H](CO)NC(=O)[C@H](CC(N)=O)NC(=O)CNC(=O)[C@H](CC(N)=O)NC(=O)CNC(=O)[C@H](CS)NC(=O)[C@H](CS)NC(=O)[C@H](CC(N)=O)NC(=O)[C@H](Cc1ccc(O)cc1)NC(=O)[C@H](CC(=O)O)NC(=O)CNC(=O)[C@@H]1CCCN1C(=O)[C@H](CCC(=O)O)NC(=O)[C@@H](N)CCCCNS(=O)(=O)c1cccc2c(N(C)C)cccc12)C(=O)NCC(=O)O [ZElan090] (H-K(Dansyl)EPGDYNCCGNGNSTG-OH; C-terminus assumed)								2.06	1.54	2.16
H-K(Dansyl)GRNHDVVSSNTHKSYRSPRSASYPRLSNDRTDRTEPAPSS-NH2 [ZElan083, reference compound]				0.43	1.03	0.88	0.63			
H-K(Dansyl)SARDSGPAEDGSRAVRLNGVENANTRKSSRSNPRGRRHPGG-NH2 [ZElan024]	inhibited									
